Here are results for six compounds from patent US20250034139A1, “AMINE COMPOUNDS HAVING ANTI-INFLAMMATORY, ANTIFUNGAL, ANTIPARASITIC, AND ANTICANCER ACTIVITY” (PHARMA CINQ, LLC, priority 2013, published 2025).

The subject of one test is PC3 human prostate cancer cells. Nature of the test: Example S: in vitro anticancer screen, PC-3 cells, Wst1. Particulars: Homo sapiens, PC-3; 0.4 μM, approximately 20 hours, Wst1; read-out: PC-3, percent of cancer cell survival relative to vehicle treated cells. It counts as cell-based. The essentials:
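Values give percent survival relative to vehicle, read by Wst1 absorbance (450/630 nm) after 2 h dye incubation, in triplicate. Cells were seeded at 2×10^4/well and treated about 20 h with compound at 0.4, 0.5 or 2.5 μM, depending on compound.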
For the compound `Fc1ccccc1OCCCCCCCCNc1ccnc2ccccc12` [DB, N-[8-(2-Fluorophenoxy)octyl]quinolin-4-amine], the viability at 0.4 µM came to 24.7%.
The same measure, in the same setting: the result for `c1ccc(Oc2ccccc2Nc2ccnc3ccccc23)cc1` [DF, N-(2-Phenoxyphenyl)quinolin-4-amine] reads 102%.
Still for that read-out and setting: the result for `CCCCCCOc1ccccc1CNc1ccnc2ccccc12` [DS, N-[2-(Hexyloxy)benzyl]quinolin-4-amine] reads 70%; that for `COc1cccc(C(=O)NCCCCCCCCNc2ccnc3ccccc23)c1` [DZ, 3-Methoxy-N-[8-(quinolin-4-ylamino)octyl]benzamide], 84.8%.

Staying with this test, now noted: Homo sapiens, PC-3; 2.5 μM, approximately 20 hours, Wst1; read-out: PC-3, percent of cancer cell survival relative to vehicle treated cells.
For `c1ccc(COc2ccc(Nc3ccnc4ccccc34)cc2)cc1` [DJ, N-[4-(Benzyloxy)phenyl]quinolin-4-amine], the viability at 2.5 µM was determined as 85.9%.
On the same count and under the same terms, the value for `CCCCCCOc1ccc(Nc2ccnc3ccccc23)cc1` [DL, N-[4-(Hexyloxy)phenyl]quinolin-4-amine] was 43%.

In another test the test system is 4T1 murine breast cancer cells. As to the kind of experiment: Example S: in vitro anticancer screen, 4T1 cells, Wst1. It counts as cell-based, mouse. To be noted: Mus musculus, 4T1, 18 h, 1 μM, 18 hr, Wst1; read-out: 4T1 1 μM, percent of cancer cell survival relative to vehicle treated cells. The essentials:
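Read-out is Wst1 absorbance (450 nm, reference 630 nm) after roughly 2 hr dye incubation, giving percent cell survival versus vehicle. Before that, compounds at 1 μM or 5 μM were applied for 18 hr to 4T1 cells plated at 1×10^4 per well.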
Turning to `Fc1ccccc1OCCCCCCCCNc1ccnc2ccccc12` [DB, N-[8-(2-Fluorophenoxy)octyl]quinolin-4-amine], the viability at 1 µM worked out at 20.1%.
The same measure, in the same setting: the result for `c1ccc(Oc2ccccc2Nc2ccnc3ccccc23)cc1` [DF, N-(2-Phenoxyphenyl)quinolin-4-amine] reads 27.1%; that for `c1ccc(COc2ccc(Nc3ccnc4ccccc34)cc2)cc1` [DJ, N-[4-(Benzyloxy)phenyl]quinolin-4-amine], 89%.
Turning to `CCCCCCOc1ccc(Nc2ccnc3ccccc23)cc1` [DL, N-[4-(Hexyloxy)phenyl]quinolin-4-amine], the viability at 1 µM was determined as 70.9%.
Same read-out and setting: the result for `CCCCCCOc1ccccc1CNc1ccnc2ccccc12` [DS, N-[2-(Hexyloxy)benzyl]quinolin-4-amine] reads 35.6%; that for `COc1cccc(C(=O)NCCCCCCCCNc2ccnc3ccccc23)c1` [DZ, 3-Methoxy-N-[8-(quinolin-4-ylamino)octyl]benzamide], 23.7%.

The test is the same for the next values; noted with them: Mus musculus, 4T1, 18 h, 5 μM, 18 hr, Wst1; read-out: 4T1 5 μM, percent of cancer cell survival relative to vehicle treated cells.
With `Fc1ccccc1OCCCCCCCCNc1ccnc2ccccc12` [DB, N-[8-(2-Fluorophenoxy)octyl]quinolin-4-amine], the viability at 5 µM worked out at 22.2%.
Still for that read-out and setting: the value for `c1ccc(Oc2ccccc2Nc2ccnc3ccccc23)cc1` [DF, N-(2-Phenoxyphenyl)quinolin-4-amine] was 20.8%; that for `c1ccc(COc2ccc(Nc3ccnc4ccccc34)cc2)cc1` [DJ, N-[4-(Benzyloxy)phenyl]quinolin-4-amine] was 66.9%.
`CCCCCCOc1ccc(Nc2ccnc3ccccc23)cc1` [DL, N-[4-(Hexyloxy)phenyl]quinolin-4-amine]: the viability at 5 µM was 21%.
`CCCCCCOc1ccccc1CNc1ccnc2ccccc12` [DS, N-[2-(Hexyloxy)benzyl]quinolin-4-amine]: the viability at 5 µM is 25.5%.
Take `COc1cccc(C(=O)NCCCCCCCCNc2ccnc3ccccc23)c1` [DZ, 3-Methoxy-N-[8-(quinolin-4-ylamino)octyl]benzamide]: the viability at 5 µM was found to be 17.4%.

The test system of another test is THP-1 cells. As to the kind of experiment: Example D: LPS-triggered THP-1 cell death assay, acute/5-hour and chronic/48-hour. Particulars: 10 ng/ml LPS, 0.1 μM test compound, 48 hours. The class given is cell-based, Human. The procedure: Compounds of the invention were tested at 0.1 μM versus AC in the LPS-triggered THP-1 cell death assay. Both acute/5-hour and chronic/48-hour phases of cell death were assessed. Compounds were screened in batches with DMSO as the negative control and AC as the high activity control.
For `Fc1ccccc1OCCCCCCCCNc1ccnc2ccccc12` [DB, N-[8-(2-Fluorophenoxy)octyl]quinolin-4-amine], the “Viable cell percent change, Chronic/48-hour, Mean” value is reported as 20.47%.
On the same count and under the same terms, the result for `c1ccc(Oc2ccccc2Nc2ccnc3ccccc23)cc1` [DF, N-(2-Phenoxyphenyl)quinolin-4-amine] reads 39.26%; that for `c1ccc(COc2ccc(Nc3ccnc4ccccc34)cc2)cc1` [DJ, N-[4-(Benzyloxy)phenyl]quinolin-4-amine], 22.32%; that for `CCCCCCOc1ccc(Nc2ccnc3ccccc23)cc1` [DL, N-[4-(Hexyloxy)phenyl]quinolin-4-amine], 61.01%.
The same measure, in the same setting: the value for `CCCCCCOc1ccccc1CNc1ccnc2ccccc12` [DS, N-[2-(Hexyloxy)benzyl]quinolin-4-amine] was 56.67%; that for `COc1cccc(C(=O)NCCCCCCCCNc2ccnc3ccccc23)c1` [DZ, 3-Methoxy-N-[8-(quinolin-4-ylamino)octyl]benzamide] was 73.5%.

The subject of the next test is PC-3 prostate cancer cells. As to the kind of experiment: Example T: sensitisation of PC-3 cells to doxorubicin, oxaliplatin, paclitaxel or vincristine, Wst1. The class given is cell-based, human. To be noted: Homo sapiens; PC-3 cells; compound 0.4 μM alone; 72 hours; Wst1; vehicle = 100; read-out: No Chemo: percent cell survival.
For the compound `Fc1ccccc1OCCCCCCCCNc1ccnc2ccccc12` [DB, N-[8-(2-Fluorophenoxy)octyl]quinolin-4-amine], the viability at 0.4 µM was determined as 24.7%.
The same measure, in the same setting: the value for `c1ccc(Oc2ccccc2Nc2ccnc3ccccc23)cc1` [DF, N-(2-Phenoxyphenyl)quinolin-4-amine] was 102%.
The same measure, in the same setting: the result for `CCCCCCOc1ccccc1CNc1ccnc2ccccc12` [DS, N-[2-(Hexyloxy)benzyl]quinolin-4-amine] reads 70%; that for `COc1cccc(C(=O)NCCCCCCCCNc2ccnc3ccccc23)c1` [DZ, 3-Methoxy-N-[8-(quinolin-4-ylamino)octyl]benzamide], 84.8%.

The test is the same for the next values; noted with them: Homo sapiens; PC-3 cells; compound 2.5 μM alone; 72 hours; Wst1; vehicle = 100; read-out: No Chemo: percent cell survival.
Turning to `c1ccc(COc2ccc(Nc3ccnc4ccccc34)cc2)cc1` [DJ, N-[4-(Benzyloxy)phenyl]quinolin-4-amine], the viability at 2.5 µM is 85.9%.
On the same count and under the same terms, the result for `CCCCCCOc1ccc(Nc2ccnc3ccccc23)cc1` [DL, N-[4-(Hexyloxy)phenyl]quinolin-4-amine] reads 43%.

Staying with this test, now noted: PC-3 cells; compound 0.4 μM + doxorubicin 3.5 μM; 72 hours; chemotherapy agent alone normalized to 100%.
In the case of `Fc1ccccc1OCCCCCCCCNc1ccnc2ccccc12` [DB, N-[8-(2-Fluorophenoxy)octyl]quinolin-4-amine], the “Doxorubicin 3.5 μM: percent cell survival” value came out at 56%.
Take `c1ccc(Oc2ccccc2Nc2ccnc3ccccc23)cc1` [DF, N-(2-Phenoxyphenyl)quinolin-4-amine]: the “Doxorubicin 3.5 μM: percent cell survival” value was found to be 88.7%.
Same read-out and setting: the value for `CCCCCCOc1ccccc1CNc1ccnc2ccccc12` [DS, N-[2-(Hexyloxy)benzyl]quinolin-4-amine] was 86.4%.
As for `COc1cccc(C(=O)NCCCCCCCCNc2ccnc3ccccc23)c1` [DZ, 3-Methoxy-N-[8-(quinolin-4-ylamino)octyl]benzamide], the “Doxorubicin 3.5 μM: percent cell survival” value is reported as 85.6%.

The test is the same for the next values; noted with them: PC-3 cells; compound 0.4 μM + oxaliplatin 100 μM; 72 hours; chemotherapy agent alone normalized to 100%.
`Fc1ccccc1OCCCCCCCCNc1ccnc2ccccc12` [DB, N-[8-(2-Fluorophenoxy)octyl]quinolin-4-amine]: the “Oxaliplatin 100 μM: percent cell survival” value was 62.3%.
On the same count and under the same terms, the value for `c1ccc(Oc2ccccc2Nc2ccnc3ccccc23)cc1` [DF, N-(2-Phenoxyphenyl)quinolin-4-amine] was 96.5%; that for `CCCCCCOc1ccccc1CNc1ccnc2ccccc12` [DS, N-[2-(Hexyloxy)benzyl]quinolin-4-amine] was 97%.
On the same count and under the same terms, the result for `COc1cccc(C(=O)NCCCCCCCCNc2ccnc3ccccc23)c1` [DZ, 3-Methoxy-N-[8-(quinolin-4-ylamino)octyl]benzamide] reads 86.7%.

Still in this test, the particulars now being: PC-3 cells; compound 0.4 μM + paclitaxel 50 μM; 72 hours; chemotherapy agent alone normalized to 100%.
Turning to `Fc1ccccc1OCCCCCCCCNc1ccnc2ccccc12` [DB, N-[8-(2-Fluorophenoxy)octyl]quinolin-4-amine], the “Paclitaxel 50 μM: percent cell survival” value stood at 40.3%.
As to `c1ccc(Oc2ccccc2Nc2ccnc3ccccc23)cc1` [DF, N-(2-Phenoxyphenyl)quinolin-4-amine], the “Paclitaxel 50 μM: percent cell survival” value was determined as 89.4%.
As to `CCCCCCOc1ccccc1CNc1ccnc2ccccc12` [DS, N-[2-(Hexyloxy)benzyl]quinolin-4-amine], the “Paclitaxel 50 μM: percent cell survival” value is reported as 97.1%.
Take `COc1cccc(C(=O)NCCCCCCCCNc2ccnc3ccccc23)c1` [DZ, 3-Methoxy-N-[8-(quinolin-4-ylamino)octyl]benzamide]: the “Paclitaxel 50 μM: percent cell survival” value is 71.8%.

The same test, now with this note: PC-3 cells; compound 0.4 μM + vincristine 100 nM; 72 hours; chemotherapy agent alone normalized to 100%.
As to `Fc1ccccc1OCCCCCCCCNc1ccnc2ccccc12` [DB, N-[8-(2-Fluorophenoxy)octyl]quinolin-4-amine], the “Vincristine 100 nM: percent cell survival” value is 29.6%.
Still for that read-out and setting: the value for `c1ccc(Oc2ccccc2Nc2ccnc3ccccc23)cc1` [DF, N-(2-Phenoxyphenyl)quinolin-4-amine] was 95.4%.
Same read-out and setting: the value for `CCCCCCOc1ccccc1CNc1ccnc2ccccc12` [DS, N-[2-(Hexyloxy)benzyl]quinolin-4-amine] was 98.6%; that for `COc1cccc(C(=O)NCCCCCCCCNc2ccnc3ccccc23)c1` [DZ, 3-Methoxy-N-[8-(quinolin-4-ylamino)octyl]benzamide] was 89%.

The test is the same for the next values; noted with them: PC-3 cells; compound 2.5 μM + doxorubicin 3.5 μM; 72 hours; chemotherapy agent alone normalized to 100%.
Regarding `c1ccc(COc2ccc(Nc3ccnc4ccccc34)cc2)cc1` [DJ, N-[4-(Benzyloxy)phenyl]quinolin-4-amine], the “Doxorubicin 3.5 μM: percent cell survival” value is on record as 116.2%.
As for `CCCCCCOc1ccc(Nc2ccnc3ccccc23)cc1` [DL, N-[4-(Hexyloxy)phenyl]quinolin-4-amine], the “Doxorubicin 3.5 μM: percent cell survival” value came out at 193.5%.

Still in this test, the particulars now being: PC-3 cells; compound 2.5 μM + oxaliplatin 100 μM; 72 hours; chemotherapy agent alone normalized to 100%.
Take `c1ccc(COc2ccc(Nc3ccnc4ccccc34)cc2)cc1` [DJ, N-[4-(Benzyloxy)phenyl]quinolin-4-amine]: the “Oxaliplatin 100 μM: percent cell survival” value is recorded as 137.1%.
On to `CCCCCCOc1ccc(Nc2ccnc3ccccc23)cc1` [DL, N-[4-(Hexyloxy)phenyl]quinolin-4-amine], for which the “Oxaliplatin 100 μM: percent cell survival” value was found to be 172.6%.

Staying with this test, now noted: PC-3 cells; compound 2.5 μM + paclitaxel 50 μM; 72 hours; chemotherapy agent alone normalized to 100%.
For the compound `c1ccc(COc2ccc(Nc3ccnc4ccccc34)cc2)cc1` [DJ, N-[4-(Benzyloxy)phenyl]quinolin-4-amine], the “Paclitaxel 50 μM: percent cell survival” value was determined as 137.1%.
On the same count and under the same terms, the result for `CCCCCCOc1ccc(Nc2ccnc3ccccc23)cc1` [DL, N-[4-(Hexyloxy)phenyl]quinolin-4-amine] reads 164.8%.

The same test, now with this note: PC-3 cells; compound 2.5 μM + vincristine 100 nM; 72 hours; chemotherapy agent alone normalized to 100%.
On to `c1ccc(COc2ccc(Nc3ccnc4ccccc34)cc2)cc1` [DJ, N-[4-(Benzyloxy)phenyl]quinolin-4-amine], for which the “Vincristine 100 nM: percent cell survival” value was found to be 115.3%.
Same read-out and setting: the result for `CCCCCCOc1ccc(Nc2ccnc3ccccc23)cc1` [DL, N-[4-(Hexyloxy)phenyl]quinolin-4-amine] reads 164.9%.
